Measured values published in patent US8143290B2, “Chemical compounds 572” (AstraZeneca AB, priority 2006, dated 2012).

Target: T1, recombinant human GR (Homo sapiens, UniProt P04150)
T1 construct: purchased Panvera/Invitrogen P2812 (kit P2893)
T1 sequence (P04150 1-777): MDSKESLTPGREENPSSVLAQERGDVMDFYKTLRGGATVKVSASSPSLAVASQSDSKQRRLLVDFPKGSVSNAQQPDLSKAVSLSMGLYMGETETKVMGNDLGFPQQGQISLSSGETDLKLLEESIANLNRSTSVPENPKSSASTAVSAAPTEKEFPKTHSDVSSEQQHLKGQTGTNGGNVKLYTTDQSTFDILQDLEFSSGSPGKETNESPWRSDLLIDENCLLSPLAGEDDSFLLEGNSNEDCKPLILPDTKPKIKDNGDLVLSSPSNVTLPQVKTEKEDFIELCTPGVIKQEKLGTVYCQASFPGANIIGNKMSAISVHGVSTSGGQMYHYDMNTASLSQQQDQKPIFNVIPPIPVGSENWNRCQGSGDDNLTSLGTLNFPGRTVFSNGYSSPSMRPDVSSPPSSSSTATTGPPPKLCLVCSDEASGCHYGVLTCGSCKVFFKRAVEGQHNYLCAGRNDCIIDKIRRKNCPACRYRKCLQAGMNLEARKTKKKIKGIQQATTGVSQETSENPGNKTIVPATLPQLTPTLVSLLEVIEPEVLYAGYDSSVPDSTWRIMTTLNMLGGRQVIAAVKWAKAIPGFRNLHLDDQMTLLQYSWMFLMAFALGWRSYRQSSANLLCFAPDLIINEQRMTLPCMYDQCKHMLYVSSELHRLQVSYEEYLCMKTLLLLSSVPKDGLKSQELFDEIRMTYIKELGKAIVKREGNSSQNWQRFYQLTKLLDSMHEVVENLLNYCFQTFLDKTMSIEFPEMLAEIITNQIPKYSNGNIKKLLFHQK
Assay: Human Glucocorticoid Receptor (GR) Assay, fluorescence polarization
Format: binding
Settings: GS Red tracer, incubated 2 h at r.t., XLfit model 205, read-out: GRhuFL_FP_v2 Mean IC50
Procedure: Human Glucocorticoid Receptor (GR) Assay
The assay is based on a commercial kit from Panvera/Invitrogen (Part number P2893). The assay technology is fluorescence polarization. […] The GR and Stabilizing Peptide reagents are stored at −70° C. while the GS Red is stored at −20° C. Also included in the kit are 1M DTT (Panvera, Part number P2325, stored at −20° C.) and GR Screening buffer 10× (Panvera, Part number P2814, stored at −70° C. initially but once thawed stored at r.t.). Avoid repeated freeze/thaws for all reagents. The GR Screening buffer 10× comprises 100 mM potassium phosphate, 200 mM sodium molybdate, 1 mM EDTA and 20% DMSO.
0% control was 100% DMSO and 100% control was […] Dexamethasone. Background solution (8 μL; assay buffer 10×, Stabilizing Peptide, DTT and ice cold MQ water) was added to the background wells. GS Red solution (7 μL; assay buffer 10×, Stabilizing Peptide, DTT, GS Red and ice cold water) was added to all wells except background wells. GR solution (7 μL; assay buffer 10×, Stabilizing Peptide, DTT, GR and ice cold water) was added to all wells. The plate was sealed and incubated in a dark at r.t. for 2 h.

Row | IC50 [nM] | Structure (SMILES)
1 | 4.4 | COc1cccc([C@@H](Oc2ccc3c(cnn3-c3ccc(F)cc3)c2)[C@H](C)NC(=O)C2CCCC2)c1 [Example 56, N-[(1R,2S)-1-[1-(4-fluorophenyl)indazol-5-yl]oxy-1-(3-methoxyphenyl)propan-2-yl]cyclopentanecarboxamide]
2 | 4.1 | COc1cccc([C@@H](Oc2ccc3c(cnn3-c3ccc(F)cc3)c2)[C@H](C)NC(=O)[C@@H](C)O)c1 [Example 57, (2R)-N-[(1R,2S)-1-[1-(4-fluorophenyl)indazol-5-yl]oxy-1-(3-methoxyphenyl)propan-2-yl]-2-hydroxy-propanamide]
3 | 2.7 | COc1cccc([C@@H](Oc2ccc3c(cnn3-c3ccc(F)cc3)c2)[C@H](C)NC(=O)[C@H](C)O)c1 [Example 58, (2S)-N-[(1R,2S)-1-[1-(4-fluorophenyl)indazol-5-yl]oxy-1-(3-methoxyphenyl)propan-2-yl]-2-hydroxy-propanamide]
4 | 3.3 | COCC(=O)N[C@@H](C)[C@H](Oc1ccc2c(cnn2-c2ccc(F)cc2)c1)c1ccc(C(F)(F)F)cc1 [Example 59, N-[(1R,2S)-1-[1-(4-fluorophenyl)indazol-5-yl]oxy-1-[4-(trifluoromethyl)phenyl]propan-2-yl]-2-methoxy-acetamide]
5 | 3.3 | C[C@H](NC(=O)CO)[C@H](Oc1ccc2c(cnn2-c2ccc(F)cc2)c1)c1ccc(C(F)(F)F)cc1 [Example 60, N-[(1R,2S)-1-[1-(4-fluorophenyl)indazol-5-yl]oxy-1-[4-(trifluoromethyl)phenyl]propan-2-yl]-2-hydroxy-acetamide]
6 | 3.3 | CCC(=O)N[C@@H](C)[C@H](Oc1ccc2c(cnn2-c2ccc(F)cc2)c1)c1ccc(C(F)(F)F)cc1 [Example 61, N-[(1R,2S)-1-[1-(4-fluorophenyl)indazol-5-yl]oxy-1-[4-(trifluoromethyl)phenyl]propan-2-yl]propanamide]
7 | 3.5 | Cc1cc2c(cnn2-c2ccc(F)cc2)cc1O[C@H](c1ccccc1)[C@H](C)NC(=O)C(F)(F)F [Example 62, 2,2,2-Trifluoro-N-[(1R,2S)-1-[1-(4-fluorophenyl)-6-methyl-indazol-5-yl]oxy-1-phenyl-propan-2-yl]acetamide]
8 | 4.4 | Cc1cc2c(cnn2-c2ccc(F)cc2)cc1O[C@H](c1ccccc1)[C@H](C)NC(=O)C(C)(C)C [Example 63, N-[(1R,2S)-1-[1-(4-Fluorophenyl)-6-methyl-indazol-5-yl]oxy-1-phenyl-propan-2-yl]-2,2-dimethyl-propanamide]
9 | 3.9 | Cc1cc2c(cnn2-c2ccc(F)cc2)cc1O[C@H](c1ccccc1)[C@H](C)NC(=O)CO [Example 64, N-[(1R,2S)-1-[1-(4-Fluorophenyl)-6-methyl-indazol-5-yl]oxy-1-phenyl-propan-2-yl]-2-hydroxy-acetamide]
10 | 3.8 | COc1cccc([C@@H](Oc2cc3cnn(-c4ccc(F)cc4)c3cc2C)[C@H](C)NC(=O)C(F)(F)F)c1 [Example 65, 2,2,2-Trifluoro-N-[(1R,2S)-1-[1-(4-fluorophenyl)-6-methyl-indazol-5-yl]oxy-1-(3-methoxyphenyl)propan-2-yl]acetamide]
11 | 4.2 | COc1cccc([C@@H](Oc2cc3cnn(-c4ccc(F)cc4)c3cc2C)[C@H](C)NC(=O)C(C)(C)C)c1 [Example 66, N-[(1R,2S)-1-[1-(4-Fluorophenyl)-6-methyl-indazol-5-yl]oxy-1-(3-methoxyphenyl)propan-2-yl]-2,2-dimethyl-propanamide]
12 | 4.1 | COc1cccc([C@@H](Oc2cc3cnn(-c4ccc(F)cc4)c3cc2C)[C@H](C)NC(=O)CO)c1 [Example 67, N-[(1R,2S)-1-[1-(4-Fluorophenyl)-6-methyl-indazol-5-yl]oxy-1-(3-methoxyphenyl)propan-2-yl]-2-hydroxy-acetamide]
13 | 4.6 | COCCOCC(=O)N[C@@H](C)[C@H](Oc1ccc2c(cnn2-c2ccc(F)cc2)c1)c1cccc(OC)c1 [Example 71, N-[(1R,2S)-1-[1-(4-Fluorophenyl)indazol-5-yl]oxy-1-(3-methoxyphenyl)propan-2-yl]-2-(2-methoxyethoxy)acetamide]
14 | 3.7 | C[C@H](NC(=O)C(F)(F)F)[C@@H](Cc1ccccc1)Oc1ccc2c(cnn2-c2ccc(F)cc2)c1 [Example 72, 2,2,2-Trifluoro-N-[(2S,3R)-3-[1-(4-fluorophenyl)indazol-5-yl]oxy-4-phenyl-butan-2-yl]acetamide]
15 | 5.1 | C[C@H](NC(=O)C(C)(C)C)[C@@H](Cc1ccccc1)Oc1ccc2c(cnn2-c2ccc(F)cc2)c1 [Example 73, N-[(2S,3R)-3-[1-(4-Fluorophenyl)indazol-5-yl]oxy-4-phenyl-butan-2-yl]-2,2-dimethyl-propanamide]
16 | 3.7 | C[C@H](NC(=O)CO)[C@@H](Cc1ccccc1)Oc1ccc2c(cnn2-c2ccc(F)cc2)c1 [Example 74, N-[(2S,3R)-3-[1-(4-Fluorophenyl)indazol-5-yl]oxy-4-phenyl-butan-2-yl]-2-hydroxy-acetamide]
17 | 5.3 | COc1cccc([C@@H](Oc2ccc3c(cnn3-c3ccc(F)cc3)c2)[C@H](C)NC(=O)C(=O)OC(C)(C)C)c1 [Example 75, tert-Butyl [(1R,2S)-1-[1-(4-fluorophenyl)indazol-5-yl]oxy-1-(3-methoxyphenyl)propan-2-yl]carbamoylformate]
18 | 2.2 | COc1cccc([C@@H](Oc2ccc3c(cnn3-c3ccc(F)cc3)c2)[C@H](C)NC(=O)C(N)=O)c1 [Example 76, N-[(1R,2S)-1-[1-(4-Fluorophenyl)indazol-5-yl]oxy-1-(3-methoxyphenyl)propan-2-yl]oxamide]
19 | 2.6 | COc1cccc([C@@H](Oc2ccc3c(cnn3-c3ccc(F)cc3)c2)[C@H](C)NC(=O)C(=O)OC(C)C)c1 [Example 77, Propan-2-yl [(1R,2S)-1-[1-(4-fluorophenyl)indazol-5-yl]oxy-1-(3-methoxyphenyl)propan-2-yl]carbamoylformate]
20 | 3.2 | CCOC(=O)C(=O)N[C@@H](C)[C@H](Oc1ccc2c(cnn2-c2ccc(F)cc2)c1)c1cccc(OC)c1 [Example 78, Ethyl [(1R,2S)-1-[1-(4-fluorophenyl)indazol-5-yl]oxy-1-(3-methoxyphenyl)propan-2-yl]carbamoylformate]
21 | 2.6 | CNC(=O)C(=O)N[C@@H](C)[C@H](Oc1ccc2c(cnn2-c2ccc(F)cc2)c1)c1cccc(OC)c1 [Example 79, N-[(1R,2S)-1-[1-(4-Fluorophenyl)indazol-5-yl]oxy-1-(3-methoxyphenyl)propan-2-yl]-N′-methyl-oxamide]
22 | 3.7 | COc1cccc([C@@H](Oc2ccc3c(cnn3-c3ccc(F)cc3)c2)[C@H](C)NC(=O)C(=O)N(C)C)c1 [Example 80, N-[(1R,2S)-1-[1-(4-Fluorophenyl)indazol-5-yl]oxy-1-(3-methoxyphenyl)propan-2-yl]-N′,N′-dimethyl-oxamide]
23 | 5.3 | COc1cccc([C@@H](Oc2ccc3c(cnn3-c3ccc(F)cc3)c2)[C@H](C)NC(=O)C(=O)NC(C)(C)C)c1 [Example 82, N-[(1R,2S)-1-[1-(4-Fluorophenyl)indazol-5-yl]oxy-1-(3-methoxyphenyl)propan-2-yl]-N′-tert-butyl-oxamide]
24 | 5.8 | COc1cccc([C@@H](Oc2ccc3c(cnn3-c3ccc(F)cc3)c2)[C@H](C)NC(=O)c2ccc(C(F)(F)F)cc2)c1 [Example 83, N-((1R,2S)-1-(1-(4-fluorophenyl)-1H-indazol-5-yloxy)-1-(3-methoxyphenyl)propan-2-yl)-4-(trifluoromethyl)benzamide]
25 | 2.3 | COc1cccc([C@@H](Oc2ccc3c(cnn3-c3ccc(F)cc3)c2)[C@H](C)NC(=O)c2ncco2)c1 [Example 84, N-((1R,2S)-1-(1-(4-fluorophenyl)-1H-indazol-5-yloxy)-1-(3-methoxyphenyl)propan-2-yl)oxazole-2-carboxamide]
26 | 2.1 | COc1cccc([C@@H](Oc2ccc3c(cnn3-c3ccc(F)cc3)c2)[C@H](C)NC(=O)c2cocn2)c1 [Example 85, N-((1R,2S)-1-(1-(4-fluorophenyl)-1H-indazol-5-yloxy)-1-(3-methoxyphenyl)propan-2-yl)oxazole-4-carboxamide]
